Measured values published in US9938260B2, “Soluble guanylate cyclase activators and their use” (GlaxoSmithKline Intellectual Property Development Limited, priority 2014, dated 2018).
Where a name gives a salt, the structure may show the parent alone.

Molecular target: T1, soluble guanylate cyclase (sGC) (Rattus norvegicus, UniProt P20595)
T1 construct: endogenous in cells; host or cells: primary rat aortic smooth muscle cells
T1 sequence (P20595 1-619): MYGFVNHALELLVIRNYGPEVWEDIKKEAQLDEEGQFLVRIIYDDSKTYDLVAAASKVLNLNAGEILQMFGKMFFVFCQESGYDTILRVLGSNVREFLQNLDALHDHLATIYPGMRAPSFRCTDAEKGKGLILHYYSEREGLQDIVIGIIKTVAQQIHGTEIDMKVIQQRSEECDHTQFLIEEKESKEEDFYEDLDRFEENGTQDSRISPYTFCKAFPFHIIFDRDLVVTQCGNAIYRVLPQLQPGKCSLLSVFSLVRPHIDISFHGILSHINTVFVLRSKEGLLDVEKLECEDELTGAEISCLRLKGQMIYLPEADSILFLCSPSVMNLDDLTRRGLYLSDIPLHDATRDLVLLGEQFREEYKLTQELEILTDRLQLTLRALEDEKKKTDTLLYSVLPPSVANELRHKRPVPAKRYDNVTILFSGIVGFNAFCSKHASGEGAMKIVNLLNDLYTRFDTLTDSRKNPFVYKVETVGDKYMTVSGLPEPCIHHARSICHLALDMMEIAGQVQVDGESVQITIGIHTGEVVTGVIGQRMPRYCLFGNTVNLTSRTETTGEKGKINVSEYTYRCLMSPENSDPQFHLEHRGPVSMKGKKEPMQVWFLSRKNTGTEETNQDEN
T1 sequence (P19686 1-690 partner): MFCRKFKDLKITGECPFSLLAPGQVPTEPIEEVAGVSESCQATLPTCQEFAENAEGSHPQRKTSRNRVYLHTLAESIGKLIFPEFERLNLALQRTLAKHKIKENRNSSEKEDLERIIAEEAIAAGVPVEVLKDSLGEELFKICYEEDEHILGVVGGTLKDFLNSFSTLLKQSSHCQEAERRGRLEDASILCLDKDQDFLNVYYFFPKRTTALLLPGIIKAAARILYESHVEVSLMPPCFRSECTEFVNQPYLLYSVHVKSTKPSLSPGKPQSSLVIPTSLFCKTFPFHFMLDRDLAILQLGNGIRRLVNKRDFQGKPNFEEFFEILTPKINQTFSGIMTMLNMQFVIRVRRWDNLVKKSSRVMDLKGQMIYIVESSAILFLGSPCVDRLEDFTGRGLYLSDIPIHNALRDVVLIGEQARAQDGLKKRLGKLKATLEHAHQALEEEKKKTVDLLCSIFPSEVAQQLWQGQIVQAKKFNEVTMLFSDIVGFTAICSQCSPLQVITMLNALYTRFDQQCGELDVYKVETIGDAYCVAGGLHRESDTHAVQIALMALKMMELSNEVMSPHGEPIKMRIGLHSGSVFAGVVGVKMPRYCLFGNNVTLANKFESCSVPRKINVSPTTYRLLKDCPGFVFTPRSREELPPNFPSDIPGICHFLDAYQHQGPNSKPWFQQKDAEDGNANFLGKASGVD
Assay: Biological cellular assay: sGC activity by phosphorylation of VASP in rat aortic smooth muscle cells
Format: cell-based
Settings: primary rat aortic smooth muscle cells, pre-incubated with 10 μM ODQ, 30 min at 37° C., phospho-VASP (pSer239) fluorescent signal; read-out: Cell assay pEC50 (converted)
Method: The activity of soluble guanylate cyclase (sGC) was tested in an assay based on measuring phosphorylation of the protein kinase G (PKG) substrate vasodilator-stimulated phosphoprotein (VASP) in rat aortic smooth muscle cells. […] Dimethylsulfoxide (DMSO) vehicle and varying concentrations of the compound to be tested were then added. Following a 30 min incubation at 37° C., media was aspirated and the cells were rinsed with phosphate-buffered saline (PBS) and fixed with 4% formaldehyde in PBS by incubating at room temperature for 20 min. Cells were then washed with PBS and permeabilized for 10 min using 0.1% triton X-100 in PBS. Following PBS rinsing, the cells were blocked for 90 min at room temperature with blocking buffer. The buffer was aspirated and the cells were treated overnight at 4° C. with primary antibody (pSer239-VASP, rabbit polyclonal Ab) diluted 1:500 in blocking buffer. Following three washes with 0.05% Tween 20, the cells were treated for 1 h at room temperature with a fluorescent labeled secondary antibody (IRDye® 800CW Donkey Anti-Rabbit IgG) diluted 1:2500 in blocking buffer with 0.05% Tween 20. Following two washes with PBS, infrared fluorescence was measured using an Odyssey Infrared Imaging System. The activity of a test compound was determined as the pEC50 value which is the concentration able to increase by 50% (vs. Bmax) the phospho-VASP fluorescent signal. Front. Pharmacol., 5 Jul. 2012|doi: 10.3389/fphar.2012.00128, Volume 3 July, 2012, Article number 128.

Row | Structure (SMILES) | EC50 [nM]
1 | Cc1cc(C2CCN(C(=O)CC3CC3)CC2)ccc1COc1c(F)cc(F)cc1-c1cccc(N2CCC(C(=O)O)CC2)n1 [Example 66, 1-(6-(2-((4-(1-(2-cyclopropylacetyl)piperidin-4-yl)-2-methylbenzyl)oxy)-3,5-difluorophenyl)pyridin-2-yl)piperidine-4-carboxylic acid, Sodium salt] | 0.316
2 | Cc1cc(C2CCN(C(=O)CC(=O)O)CC2)ccc1COc1c(F)cc(F)cc1-c1cccc(N2CCC(C(=O)O)CC2)n1 [Example 81, 1-(6-(2-((4-(1-(2-carboxyacetyl)piperidin-4-yl)-2-methylbenzyl)oxy)-3,5-difluorophenyl)pyridin-2-yl)piperidine-4-carboxylic acid, di-Sodium salt] | 15.8
3 | Cc1nc(C2CCN(C3COC3)CC2)ccc1COc1c(F)cc(F)cc1-c1cccc(N2CCC(C(=O)O)CC2)n1 [Example 17, 1-(6-(3,5-difluoro-2-((2-methyl-6-(1-(oxetan-3-yl)piperidin-4-yl)pyridin-3-yl)methoxy)phenyl)pyridin-2-yl)piperidine-4-carboxylic acid] | 79.4
4 | Cc1cc(C2CCN(C3COC3)CC2)ccc1COc1c(Cl)cccc1-c1cccc(N2CCC(C(=O)O)CC2)n1 [Example 36, 1-(6-(3-chloro-2-((2-methyl-4-(1-(oxetan-3-yl)piperidin-4-yl)benzyl)oxy)phenyl)pyridin-2-yl)piperidine-4-carboxylic acid, Sodium salt] | 10
5 | Cc1nc(C2CCN(CC3CCOC3)CC2)ccc1COc1c(F)cc(F)cc1-c1cccc(N2CCC(C(=O)O)CC2)n1 (stereo not shown) [Example 23, 1-(6-(3,5-difluoro-2-((2-methyl-6-(1-((tetrahydrofuran-3-yl)methyl)piperidin-4-yl)pyridin-3-yl)methoxy)phenyl)pyridin-2-yl)piperidine-4-carboxylic acid] | 251
6 | Cc1nc(C2CCN(C(=O)CO)CC2)ccc1COc1c(F)cc(F)cc1-c1cccc(N2CCC(C(=O)O)CC2)n1 [Example 33, 1-(6-(3,5-difluoro-2-((6-(1-(2-hydroxyacetyl)piperidin-4-yl)-2-methylpyridin-3-yl)methoxy)phenyl)pyridin-2-yl)piperidine-4-carboxylic acid, Sodium salt] | 15.8
7 | Cc1cc(OC2CCN(CC(F)(F)F)CC2)ccc1COc1c(F)cc(F)cc1-c1cccc(N2CCC(C(=O)O)CC2)n1 [Example 93, 1-(6-(3,5-difluoro-2-((2-methyl-4-((1-(2,2,2-trifluoroethyl)piperidin-4-yl)oxy)benzyl)oxy)phenyl)pyridin-2-yl)piperidine-4-carboxylic acid, Sodium salt] | 7.94
8 | Cc1cc(C2CCN(C(=O)[C@H]3CCOC3)CC2)ccc1COc1c(F)cc(F)cc1-c1cccc(N2CCC(C(=O)O)CC2)n1 [Example 72, (S)-1-(6-(3,5-difluoro-2-((2-methyl-4-(1-(tetrahydrofuran-3-carbonyl)piperidin-4-yl)benzyl)oxy)phenyl)pyridin-2-yl)piperidine-4-carboxylic acid, Sodium salt] | 0.427
9 | COCCN1CCC(c2ccc(COc3c(F)cc(F)cc3-c3cccc(N4CCC(C(=O)O)CC4)n3)c(C)c2)CC1 [Example 48, 1-(6-(3,5-difluoro-2-((4-(1-(2-methoxyethyl)piperidin-4-yl)-2-methylbenzyl)oxy)phenyl)pyridin-2-yl)piperidine-4-carboxylic acid, Sodium salt] | 15.8
10 | Cc1cc(C2CCN(C(=O)C3COC3)CC2)ccc1COc1c(F)cc(F)cc1-c1cccc(N2CCC(C(=O)O)CC2)n1 [Example 6, 1-(6-(3,5-difluoro-2-((2-methyl-4-(1-(oxetane-3-carbonyl)piperidin-4-yl)benzyl)oxy)phenyl)pyridin-2yl)piperidine-4-carboxylic acid] | 0.1
11 | Cc1cc(C2CCN(CCO)CC2)ccc1COc1c(F)cc(F)cc1-c1cccc(N2CCC(C(=O)O)CC2)n1 [Example 51, 1-(6-(3,5-difluoro-2-((4-(1-(2-hydroxyethyl)piperidin-4-yl)-2-methylbenzyl)oxy)phenyl)pyridin-2-yl)piperidine-4-carboxylic acid, Sodium salt] | 31.6
12 | Cc1cc(C2CCN(C3CCOC3)CC2)ccc1COc1c(F)cc(F)cc1-c1cccc(N2CCC(C(=O)O)CC2)n1 (stereo not shown) [Example 42, 1-(6-(3,5-difluoro-2-((2-methyl-4-(1-(tetrahydrofuran-3-yl)piperidin-4-yl)benzyl)oxy)phenyl)pyridin-2-yl)piperidine-4-carboxylic acid, Sodium salt] | 2.51
13 | Cc1cc(C2CCN(C(=O)Cn3cncn3)CC2)ccc1COc1c(F)cc(F)cc1-c1cccc(N2CCC(C(=O)O)CC2)n1 [Example 84, 1-(6-(2-((4-(1-(2-(1H-1,2,4-triazol-1-yl)acetyl)piperidin-4-yl)-2-methylbenzyl)oxy)-3,5-difluorophenyl)pyridin-2-yl)piperidine-4-carboxylic acid, Sodium salt] | 20
14 | Cc1cc(C2CCN(C(=O)CC#N)CC2)ccc1COc1c(F)cc(F)cc1-c1cccc(N2CCC(C(=O)O)CC2)n1 [Example 63, 1-(6-(2-((4-(1-(2-cyanoacetyl)piperidin-4-yl)-2-methylbenzyl)oxy)-3,5-difluorophenyl)pyridin-2-yl)piperidine-4-carboxylic acid, Sodium salt] | 0.398
15 | Cc1nc(C2CCN(C3CCOC3)CC2)ccc1COc1c(F)cc(F)cc1-c1cccc(N2CCC(C(=O)O)CC2)n1 (stereo not shown) [Example 20, 1-(6-(3,5-difluoro-2-((2-methyl-6-(1-(tetrahydrofuran-3-yl)piperidin-4-yl)pyridin-3-yl)methoxy)phenyl)pyridin-2-yl)piperidine-4-carboxylic acid] | 158
16 | Cc1cc(C2CCN(CC(F)(F)F)CC2)ccc1COc1c(F)cc(F)cc1-c1cccc(N2CCC(C(=O)O)CC2)n1 [Example 5, 1-(6-(3,5-difluoro-2-((2-methyl-4-(1-(2,2,2-trifluoroethyl)piperidin-4-yl)benzyl)oxy)phenyl)pyridin-2yl)piperidine-4-carboxylic acid] | 0.501
17 | Cc1cc(C2CCN(C(=O)[C@@H]3CCOC3)CC2)ccc1COc1c(F)cc(F)cc1-c1cccc(N2CCC(C(=O)O)CC2)n1 [Example 73, (R)-1-(6-(3,5-difluoro-2-((2-methyl-4-(1-(tetrahydrofuran-3-carbonyl)piperidin-4-yl)benzyl)oxy)phenyl)pyridin-2-yl)piperidine-4-carboxylic acid, Sodium salt] | 0.0891
18 | O=C(O)C1CCN(c2cccc(-c3cc(F)cc(F)c3OCc3ccc(C4CCN(CC(F)(F)F)CC4)cc3OC3COC3)n2)CC1 [Example 90, 1-(6-(3,5-difluoro-2-((2-(oxetan-3-yloxy)-4-(1-(2,2,2-trifluoroethyl)piperidin-4-yl)benzyl)oxy)phenyl)pyridin-2-yl)piperidine-4-carboxylic acid, Sodium salt] | 1.26
19 | COc1cc(C2CCN(CC(F)(F)F)CC2)ccc1COc1c(F)cc(F)cc1-c1cccc(N2CCC(C(=O)O)CC2)n1 [Example 87, 1-(6-(3,5-difluoro-2-((2-methoxy-4-(1-(2,2,2-trifluoroethyl)piperidin-4-yl)benzyl)oxy)phenyl)pyridin-2-yl)piperidine-4-carboxylic acid, Sodium salt] | 2.51
